Where two headings read alike, the source gives them in different places.
Columns and labels:
allergic sheep [1] = experiment: Antigen-induced airway hyperresponsiveness (AHR), PD400 of carbachol, acute responder sheep; assay type: in vivo; conditions: acute responders; for inhibition of AHR (PD400): 2 hours after antigen, FIG. 7
Experimental: (§1) To assess the normal or baseline airway responsiveness of the sheep, cumulative dose response curves to inhaled carbochol were performed. The SRL of each sheep was measured before and after inhalation of a buffered saline solution and after each administration of 10 breaths of increasing concentrations of carbachol (0.25, 0.5, 1.0, 2.0 and 4.0% wt/vol solution). Airway responsiveness was defined by determination of the cumulative provocation dose (PD400) of carbachol (in breath units) that increased SRL to 400% above baseline. One breath unit was defined as one breath of 1% carbachol solution.
(§2) The following experiments used inhaled D- or L-propranolol. AHR was estimated at 2 hours (acute) or 24 hours (dual) after antigen challenge as the provocating dose of carbachol which increased SRL by 400% (PD400). In acute responders, SRL increased by 219% with antigen challenge and PD400 decreased by 55%. Inhaled D-propranolol had no effect on baseline SRL, but inhibited ABR in a dose dependent manner.

allergic sheep [2] = experiment: Antigen-induced bronchoconstriction (early and late phase SRL), dual responder sheep; assay type: in vivo; conditions: dual responders
Excerpt: Data was expressed as specific resistance, SRL.

allergic sheep [3] = experiment: Antigen-induced airway hyperresponsiveness (AHR), PD400 of carbachol, dual responder sheep; assay type: in vivo; conditions: dual responders
Experimental: as §1, §2

allergic sheep [4] = conditions: for inhibition of ABR: FIG. 6
Experimental: Five allergic sheep, with previously documented acute bronchoconstrictor response to Ascaris suum antigen, were used for all studies. The sheep were intubated with a cuffed nasotracheal tube and pulmonary airflow resistance (RL) was measured by the esophageal balloon catheter technique, while thoracic gas volume was measured by body plethysmography. Data was expressed as specific resistance, SRL. SRL is defined as RL times thoracic gas volume (Vtg).
The normal reaction of the sheep to the antigen from Ascaris suum is measured. After full recovery and a two week rest period, the sheep again undergo repeat antigen challenge, but this time only after treatment with D-propranolol.
The SRL of the acute responder sheep was measured prior to any treatment (baseline). The normal response of the sheep to antigen challenge by Ascaris suum antigen was measured (Open circles). […] One hour after D-propranolol was administered, the sheep were challenged with Ascaris suum antigen by inhalation. The SRL was measured immediately after antigen challenge (AG0).
Specific lung resistance (SRL) was measured in 11 allergic sheep, of which six sheep were acute responders and five sheep were dual responders, before and serially after challenge with Ascaris suum antigen, without and after pretreatment with D- or L-propranolol. The propranolol was administered either in an inhaled dose or an oral dose.

[5] = inhaled, FIG. 18 (legend: 10 mg/kg)

In the case of `CC(C)NC[C@@H](O)COc1cccc2ccccc12` [D-propranolol], the “airway responsiveness (PD400) after antigen” value (allergic sheep [1]; Example I, inhaled 10 mg in 4 mL PBS, P=NS, FIG. 4) was “maintained the airway responsiveness levels at the baseline”, the “inhibition of AHR (PD400)” value (allergic sheep [1]; inhaled, 5 mg dose) was 30% and the “inhibition of AHR (PD400)” value (allergic sheep [1]; inhaled, 10 mg dose) was 50%. The “inhibition of AHR (PD400)” value (allergic sheep [1]; inhaled, 20 mg dose, P<0.05 vs post-antigen) was 75%, the “effect on AHR (change in PD400)” value (allergic sheep [1]; oral, 5 mg/kg, FIG. 11) was “effects” and the “attenuation of early phase” value (allergic sheep [2]; inhaled, 5 mg dose, FIG. 12) was 35%. The “attenuation of late phase” value (allergic sheep [2]; inhaled, 5 mg dose, FIG. 12) was 21%, the “effect on ABR” value (allergic sheep [2]; inhaled, 10 mg dose, FIG. 14) was “effected ABR” and the “effect on early phase” value (allergic sheep [2]; oral, 5 mg/kg, FIG. 16) was “significantly effected the early phase”. The “effect on late phase response” value (allergic sheep [2]; oral, 5 mg/kg, FIG. 16) was “may even remove the late phase response”, the “inhibition of AHR (PD400)” value (allergic sheep [3]; inhaled, 5 mg dose, 24 hours after antigen, P<0.05, FIG. 13) was 44% and the “effect on AHR” value (allergic sheep [3]; inhaled, 10 mg dose, FIG. 15) was “effected”. For the same compound, the “effect on AHR” value (allergic sheep [3]; oral, 5 mg/kg, FIG. 17) was “effected AHR”, the “allergic bronchoconstriction after antigen challenge” value (allergic sheep [4]; Example I, acute responders (n=5), aerosol 10 mg in 4 mL PBS one hour before antigen, FIG. 1) was “significant inhibition of allergic bronchoconstriction” and the “percentage change in SRL after antigen stimulation vs control” value (allergic sheep [4]; Example I, acute responders (n=5), aerosol 10 mg in 4 mL PBS, P<0.05, FIG. 2) was “significantly less change in SRL”. For the same compound, the “inhibition of ABR” value (allergic sheep [4]; acute responders, inhaled, 5 mg dose) was 37%, the “inhibition of ABR” value (allergic sheep [4]; acute responders, inhaled, 10 mg dose, P<0.05) was 68% and the “inhibition of ABR” value (allergic sheep [4]; acute responders, inhaled, 20 mg dose) was 44%. For the same compound, the “effect on ABR (change in SRL)” value (allergic sheep [4]; acute responders, oral, 5 mg/kg, FIG. 10) was “effects ABR” and the “effect on baseline SRL” value (allergic sheep [4]; in vivo) was “had no effect”.
With `CC(C)NC[C@H](O)COc1cccc2ccccc12` [L-propranolol, reference compound] the “AHR response (PD400)” value (allergic sheep [1]; inhaled, 10 mg dose, FIG. 9) was “no difference between the post antigen and L-propranolol responses”, the “effect on antigen-induced responses” value (allergic sheep [2]; [5]) was “ineffective” and the “peak early change in SRL” value (allergic sheep [2]; [5]) was 351%. For the same compound, the “peak late SRL” value (allergic sheep [2]; [5]) was 175%, the “effect on PD400” value (allergic sheep [3]; inhaled, 24 hours after antigen, FIG. 19 (legend: 10 mg/kg)) was “had no effect” and the “change in SRL after antigen challenge” value (allergic sheep [4]; acute responders, inhaled, 10 mg dose, FIG. 8) was 209%.

From US20020013373A1, “Methods and compositions for treatment of asthma” (priority 1997, published 2002)
